Experimental data from patent US10766902B2, “Wee-1 inhibiting pyrazolopyrimidinone compounds” (ALMAC DISCOVERY LIMITED, priority 2016, dated 2020).

How the values were obtained:
[1] = target: PIM1 (Homo sapiens (Human), UniProt P11309); test: SelectScreen Kinase Profiling: PIM1; type: biochemical; settings: tested at 300-350 nM
Description: (§1) Table 4 below highlights the selectivity of a representative compound of the invention, Example 5, against a panel of 50 kinases (assessed using the Invitrogen SelectScreen® Kinase Profiling Service).

[2] = target: RET (Homo sapiens (Human), UniProt P07949); test: SelectScreen Kinase Profiling: RET; type: biochemical; settings: tested at 300-350 nM
Chain of RET (P07949 29-1114): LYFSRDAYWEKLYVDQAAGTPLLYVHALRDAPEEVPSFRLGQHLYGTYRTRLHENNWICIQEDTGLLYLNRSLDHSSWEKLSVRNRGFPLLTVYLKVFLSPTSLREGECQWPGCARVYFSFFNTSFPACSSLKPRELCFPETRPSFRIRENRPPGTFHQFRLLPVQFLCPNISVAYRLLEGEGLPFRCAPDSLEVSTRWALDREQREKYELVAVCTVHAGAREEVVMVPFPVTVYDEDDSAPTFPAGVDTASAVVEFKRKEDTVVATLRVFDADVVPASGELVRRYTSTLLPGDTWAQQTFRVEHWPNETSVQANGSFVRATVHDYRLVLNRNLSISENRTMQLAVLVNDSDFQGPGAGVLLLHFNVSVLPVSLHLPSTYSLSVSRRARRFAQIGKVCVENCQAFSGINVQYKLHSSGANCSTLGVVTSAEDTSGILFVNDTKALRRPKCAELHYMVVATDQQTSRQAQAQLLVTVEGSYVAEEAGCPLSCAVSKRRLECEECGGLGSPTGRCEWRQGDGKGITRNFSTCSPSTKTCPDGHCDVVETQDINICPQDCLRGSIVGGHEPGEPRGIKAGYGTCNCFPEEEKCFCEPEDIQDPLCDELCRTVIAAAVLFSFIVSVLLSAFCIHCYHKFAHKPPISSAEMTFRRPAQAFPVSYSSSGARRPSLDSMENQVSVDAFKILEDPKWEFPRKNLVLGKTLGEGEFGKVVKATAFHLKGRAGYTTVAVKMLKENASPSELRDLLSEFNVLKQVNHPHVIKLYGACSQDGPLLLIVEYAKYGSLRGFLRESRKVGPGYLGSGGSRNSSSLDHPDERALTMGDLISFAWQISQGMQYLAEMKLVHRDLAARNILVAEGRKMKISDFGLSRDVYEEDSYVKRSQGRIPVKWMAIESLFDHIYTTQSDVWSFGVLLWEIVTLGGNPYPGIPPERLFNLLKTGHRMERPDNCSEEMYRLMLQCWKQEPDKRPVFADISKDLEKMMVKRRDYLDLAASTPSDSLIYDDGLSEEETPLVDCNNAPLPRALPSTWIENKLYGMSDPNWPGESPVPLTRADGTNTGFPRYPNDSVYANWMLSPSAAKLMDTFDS

[3] = target: KIT (Homo sapiens (Human), UniProt P10721); test: SelectScreen Kinase Profiling: KIT; type: biochemical; settings: tested at 300-350 nM
Chain of KIT (P10721 26-976): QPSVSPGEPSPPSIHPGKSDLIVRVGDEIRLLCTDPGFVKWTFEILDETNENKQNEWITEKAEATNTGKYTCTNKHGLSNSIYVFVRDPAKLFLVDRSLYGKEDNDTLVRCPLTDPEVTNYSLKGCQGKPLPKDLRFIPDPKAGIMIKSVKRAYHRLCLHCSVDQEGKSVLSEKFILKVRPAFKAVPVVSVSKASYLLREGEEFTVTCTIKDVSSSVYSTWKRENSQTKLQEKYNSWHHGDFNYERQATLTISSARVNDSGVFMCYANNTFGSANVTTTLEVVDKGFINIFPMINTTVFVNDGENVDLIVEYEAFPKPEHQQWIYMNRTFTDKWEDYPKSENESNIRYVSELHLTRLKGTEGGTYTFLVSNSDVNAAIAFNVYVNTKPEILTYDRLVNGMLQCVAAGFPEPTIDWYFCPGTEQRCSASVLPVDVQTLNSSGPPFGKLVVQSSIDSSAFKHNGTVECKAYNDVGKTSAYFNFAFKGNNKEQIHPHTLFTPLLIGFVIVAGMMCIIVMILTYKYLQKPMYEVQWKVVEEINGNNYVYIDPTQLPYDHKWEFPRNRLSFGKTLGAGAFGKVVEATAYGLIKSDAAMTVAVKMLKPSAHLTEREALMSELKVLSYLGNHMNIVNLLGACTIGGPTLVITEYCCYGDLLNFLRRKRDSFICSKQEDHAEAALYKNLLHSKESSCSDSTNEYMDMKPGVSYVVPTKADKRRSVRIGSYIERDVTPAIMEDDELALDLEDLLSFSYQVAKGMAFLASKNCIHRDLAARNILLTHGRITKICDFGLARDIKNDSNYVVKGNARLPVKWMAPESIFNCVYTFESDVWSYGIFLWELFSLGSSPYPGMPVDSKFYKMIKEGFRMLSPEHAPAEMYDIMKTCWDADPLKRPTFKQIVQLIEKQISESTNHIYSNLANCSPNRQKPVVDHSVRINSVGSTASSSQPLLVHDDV
Description: as §1

[4] = target: BTK (Homo sapiens (Human), UniProt Q06187); test: SelectScreen Kinase Profiling: BTK; type: biochemical; settings: tested at 300-350 nM
Description: as §1

[5] = target: GSK3B (GSK3 beta) (Homo sapiens (Human), UniProt P49841); test: SelectScreen Kinase Profiling: GSK3B (GSK3 beta); type: biochemical; settings: tested at 300-350 nM
Chain of GSK3B (GSK3 beta) (P49841 whole entry): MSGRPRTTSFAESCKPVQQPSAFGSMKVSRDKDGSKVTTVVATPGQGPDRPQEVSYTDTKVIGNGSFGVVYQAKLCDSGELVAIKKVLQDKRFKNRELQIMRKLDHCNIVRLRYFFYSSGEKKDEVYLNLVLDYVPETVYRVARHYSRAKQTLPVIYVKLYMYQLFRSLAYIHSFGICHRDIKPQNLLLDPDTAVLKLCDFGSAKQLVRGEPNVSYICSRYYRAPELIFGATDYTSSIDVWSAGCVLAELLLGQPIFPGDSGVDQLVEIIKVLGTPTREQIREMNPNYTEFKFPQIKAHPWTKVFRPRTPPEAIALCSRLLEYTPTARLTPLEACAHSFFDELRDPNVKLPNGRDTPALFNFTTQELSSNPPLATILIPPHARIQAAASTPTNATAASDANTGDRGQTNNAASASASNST
Description: as §1

[6] = target: IRAK4 (Homo sapiens (Human), UniProt Q9NWZ3); test: SelectScreen Kinase Profiling: IRAK4; type: biochemical; settings: tested at 300-350 nM
Chain of IRAK4 (Q9NWZ3 whole entry): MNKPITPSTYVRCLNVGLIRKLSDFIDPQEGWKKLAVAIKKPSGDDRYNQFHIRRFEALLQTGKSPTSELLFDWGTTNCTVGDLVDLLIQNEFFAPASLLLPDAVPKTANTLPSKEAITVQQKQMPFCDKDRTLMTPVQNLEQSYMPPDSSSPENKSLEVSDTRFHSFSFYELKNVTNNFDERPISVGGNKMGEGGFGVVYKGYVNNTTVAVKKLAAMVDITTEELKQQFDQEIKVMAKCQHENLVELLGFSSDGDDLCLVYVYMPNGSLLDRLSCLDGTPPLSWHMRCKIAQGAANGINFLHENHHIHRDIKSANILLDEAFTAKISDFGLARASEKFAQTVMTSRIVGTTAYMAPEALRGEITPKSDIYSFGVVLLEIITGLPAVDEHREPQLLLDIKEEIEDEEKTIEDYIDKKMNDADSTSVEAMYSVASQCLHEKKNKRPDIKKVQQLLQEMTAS
Description: as §1

[7] = target: RPS6KB1 (p70S6K) (Homo sapiens (Human), UniProt P23443); test: SelectScreen Kinase Profiling: RPS6KB1 (p70S6K); type: biochemical; settings: tested at 300-350 nM
Description: as §1

[8] = target: PHKG2 (Homo sapiens (Human), UniProt P15735); test: SelectScreen Kinase Profiling: PHKG2; type: biochemical; settings: tested at 300-350 nM
Chain of PHKG2 (P15735 whole entry): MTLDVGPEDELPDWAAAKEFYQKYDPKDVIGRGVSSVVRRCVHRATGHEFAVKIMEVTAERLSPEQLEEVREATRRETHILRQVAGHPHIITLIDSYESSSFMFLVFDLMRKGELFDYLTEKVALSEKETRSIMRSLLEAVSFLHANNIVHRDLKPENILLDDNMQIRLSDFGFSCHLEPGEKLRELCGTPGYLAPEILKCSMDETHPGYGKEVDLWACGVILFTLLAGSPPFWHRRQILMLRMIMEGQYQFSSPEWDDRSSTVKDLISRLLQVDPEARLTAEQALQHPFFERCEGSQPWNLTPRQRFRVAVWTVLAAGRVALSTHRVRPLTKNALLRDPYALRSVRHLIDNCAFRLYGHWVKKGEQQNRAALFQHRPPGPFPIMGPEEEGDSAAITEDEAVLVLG
Description: as §1

[9] = system: A427 cells; test: Cell viability (CellTiter-Glo), A427; type: cell-based; settings: Homo sapiens, A-427; cell viability after 72 hours
Experimental: All cell lines (HT29, A427, A498, SKLU-1) were obtained from the American Type Culture Collection (ATCC), maintained in the recommended media supplemented with 10% (v/v) FBS, 1% (v/v) Penicillin/streptomycin and kept at 37° C. in a humidified atmosphere with 5% CO2. Cells were seeded in 96 wp format typically at a seeding density of 3500-5000 cells/well and treated after 24 hours with increasing concentration of compound from 0 to 100 μM in ½ log unit increments. Cell viability was assessed after 72 hours (HT29, A427) or after 6 days (SKLU-1, A498) by CellTiter-Glo® as recommended by the manufacturer's instructions (Promega). Analysis and EC50 values were derived using GraphPadPrism.

[10] = target: PAK4 (Homo sapiens (Human), UniProt O96013); test: SelectScreen Kinase Profiling: PAK4; type: biochemical; settings: tested at 300-350 nM
Chain of PAK4 (O96013 whole entry): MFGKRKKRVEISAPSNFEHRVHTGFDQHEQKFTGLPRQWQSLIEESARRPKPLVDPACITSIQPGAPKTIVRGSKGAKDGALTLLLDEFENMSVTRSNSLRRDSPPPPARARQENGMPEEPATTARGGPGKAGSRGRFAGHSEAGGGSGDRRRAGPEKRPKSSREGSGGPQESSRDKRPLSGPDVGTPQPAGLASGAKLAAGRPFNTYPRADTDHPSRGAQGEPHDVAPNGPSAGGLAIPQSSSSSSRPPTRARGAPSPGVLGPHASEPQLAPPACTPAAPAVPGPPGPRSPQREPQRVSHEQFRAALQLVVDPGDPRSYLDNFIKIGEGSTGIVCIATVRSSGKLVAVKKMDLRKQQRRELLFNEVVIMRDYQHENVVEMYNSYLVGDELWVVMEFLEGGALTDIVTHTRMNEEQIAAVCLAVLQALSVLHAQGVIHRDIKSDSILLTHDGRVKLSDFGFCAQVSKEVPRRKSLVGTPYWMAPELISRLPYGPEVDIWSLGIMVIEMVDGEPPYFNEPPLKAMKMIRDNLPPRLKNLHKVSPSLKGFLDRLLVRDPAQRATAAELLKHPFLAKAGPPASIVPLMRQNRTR
Description: as §1

[11] = target: ROCK1 (Homo sapiens (Human), UniProt Q13464); test: SelectScreen Kinase Profiling: ROCK1; type: biochemical; settings: tested at 300-350 nM
Description: as §1

[12] = target: PRKCB1 (PKC beta I) (Homo sapiens (Human), UniProt P05771); test: SelectScreen Kinase Profiling: PRKCB1 (PKC beta I); type: biochemical; settings: tested at 300-350 nM
Description: as §1

[13] = target: PLK1 (Homo sapiens (Human), UniProt P53350); test: SelectScreen Kinase Profiling: PLK1; type: biochemical; settings: tested at 300-350 nM
Chain of PLK1 (P53350 whole entry): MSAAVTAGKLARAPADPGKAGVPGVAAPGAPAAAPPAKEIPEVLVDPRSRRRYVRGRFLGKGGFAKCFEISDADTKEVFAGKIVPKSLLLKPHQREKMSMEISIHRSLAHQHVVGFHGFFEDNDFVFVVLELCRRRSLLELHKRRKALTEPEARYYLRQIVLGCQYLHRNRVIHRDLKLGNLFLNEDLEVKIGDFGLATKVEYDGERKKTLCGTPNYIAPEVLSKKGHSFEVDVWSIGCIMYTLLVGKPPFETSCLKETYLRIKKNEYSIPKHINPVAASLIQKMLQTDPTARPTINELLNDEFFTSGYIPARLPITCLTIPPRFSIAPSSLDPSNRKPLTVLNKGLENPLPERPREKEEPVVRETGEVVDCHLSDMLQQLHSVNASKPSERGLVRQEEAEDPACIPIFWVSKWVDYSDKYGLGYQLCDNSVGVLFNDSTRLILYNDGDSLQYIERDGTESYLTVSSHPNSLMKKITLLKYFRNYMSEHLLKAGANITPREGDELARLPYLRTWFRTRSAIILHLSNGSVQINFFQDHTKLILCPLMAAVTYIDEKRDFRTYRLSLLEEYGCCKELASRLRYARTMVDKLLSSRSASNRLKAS
Description: as §1

[14] = target: ACVR1B (ALK4) (Homo sapiens (Human), UniProt P36896); test: SelectScreen Kinase Profiling: ACVR1B (ALK4); type: biochemical; settings: tested at 300-350 nM
Chain of ACVR1B (ALK4) (P36896 24-505): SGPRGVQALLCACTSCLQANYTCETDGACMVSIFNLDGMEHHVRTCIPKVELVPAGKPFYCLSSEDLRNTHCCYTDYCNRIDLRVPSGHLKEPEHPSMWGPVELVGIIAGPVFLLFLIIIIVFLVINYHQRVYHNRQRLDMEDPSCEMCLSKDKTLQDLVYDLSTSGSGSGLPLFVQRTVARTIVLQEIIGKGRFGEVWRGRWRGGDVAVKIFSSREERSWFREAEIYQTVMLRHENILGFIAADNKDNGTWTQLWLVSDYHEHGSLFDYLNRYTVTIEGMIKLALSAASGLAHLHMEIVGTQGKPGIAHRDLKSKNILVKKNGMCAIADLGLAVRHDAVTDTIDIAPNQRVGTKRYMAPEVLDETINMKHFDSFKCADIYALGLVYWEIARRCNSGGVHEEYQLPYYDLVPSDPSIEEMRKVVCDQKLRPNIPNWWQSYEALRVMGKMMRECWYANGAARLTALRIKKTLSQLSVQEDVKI
Description: as §1

`C=CCn1c(=O)c2cnc(Nc3ccc(N4CCN(C)CC4)cc3)nc2n1-c1cccc(N=S(C)(C)=O)n1` [Example 5, 1-(6-{[Dimethyl(oxo)-λ^6-sulfanylidene]amino}pyridine-2-yl)-6-{[4-(4-methylpiperazin-1-yl)phenyl]amino}-2-(prop-2-en-1-yl)-1H,2H,3H-pyrazolo[3,4-d]pyrimidin-3-one] was tested. Which “inhibition of PIM1” value [1] did it give?
The value was “− (inhibition under 50% (tested at 300-350 nM))”.

And the “inhibition of RET” value [2]?
Its value is “− (inhibition under 50% (tested at 300-350 nM))”.

And the “inhibition of KIT” value [3]?
The value was “− (inhibition under 50% (tested at 300-350 nM))”.

And the “inhibition of BTK” value [4]?
The value was “− (inhibition under 50% (tested at 300-350 nM))”.

What about the “inhibition of GSK3B (GSK3 beta)” value [5] of the same compound?
Its value is “− (inhibition under 50% (tested at 300-350 nM))”.

What about the “inhibition of IRAK4” value [6] of the same compound?
The value was “− (inhibition under 50% (tested at 300-350 nM))”.

What about the “inhibition of RPS6KB1 (p70S6K)” value [7] of the same compound?
The value was “− (inhibition under 50% (tested at 300-350 nM))”.

What about the “inhibition of PHKG2” value [8] of the same compound?
Its value is “− (inhibition under 50% (tested at 300-350 nM))”.

And the EC50 [9]?
Its EC50 is 29 nM.

What about the “inhibition of PAK4” value [10] of the same compound?
The value was “− (inhibition under 50% (tested at 300-350 nM))”.

And the “inhibition of ROCK1” value [11]?
Its value is “− (inhibition under 50% (tested at 300-350 nM))”.

And the “inhibition of PRKCB1 (PKC beta I)” value [12]?
Its value is “− (inhibition under 50% (tested at 300-350 nM))”.

And the “inhibition of PLK1” value [13]?
The value was “− (inhibition under 50% (tested at 300-350 nM))”.

And the “inhibition of ACVR1B (ALK4)” value [14]?
The value was “− (inhibition under 50% (tested at 300-350 nM))”.
